± gives the expanded uncertainty stated by the source.
Assay: activity coefficient (dimensionless); of the first substance listed, at infinite dilution; xn = mol fraction of the nth substance listed
Settings: 101 kPa, Liquid, dilutor technique, x1 = 0

Row | Compound | activity coefficient (323.15 K) | activity coefficient (333.15 K) | activity coefficient (343.15 K) | activity coefficient (353.15 K) | activity coefficient (303.15 K) | activity coefficient (313.15 K)
1 | CCC(C)O (configuration not stated) [butan-2-ol] + CCn1cc[n+](C)c1.O=S(=O)([O-])O | 1.22 ± 0.079 | 0.76 ± 0.052 | 0.566 ± 0.045 | 0.452 ± 0.042 | – | –
2 | CCCO [propan-1-ol] + CCn1cc[n+](C)c1.COS(=O)(=O)[O-] | 1.05 ± 0.066 | 0.975 ± 0.06 | 0.839 ± 0.055 | 0.705 ± 0.05 | – | –
3 | CCC(C)O (configuration not stated) [butan-2-ol] + CCOS(=O)(=O)[O-].CCn1cc[n+](C)c1 | 1.69 ± 0.12 | 1.56 ± 0.11 | 1.62 ± 0.11 | 1.39 ± 0.094 | 2.06 ± 0.18 | 1.83 ± 0.13
4 | CO [methanol] + CCn1cc[n+](C)c1.O=S(=O)([O-])O | 0.087 ± 0.039 | 0.078 | 0.058 | 0.041 | – | –
5 | CC(C)O [propan-2-ol] + CCOS(=O)(=O)[O-].CCn1cc[n+](C)c1 | 1.25 ± 0.082 | 1.04 ± 0.065 | 1.01 ± 0.062 | 0.966 ± 0.06 | 1.48 ± 0.1 | 1.31 ± 0.087
6 | CCC(C)O (configuration not stated) [butan-2-ol] + CCn1cc[n+](C)c1.COS(=O)(=O)[O-] | 4.02 ± 0.36 | 3.11 ± 0.28 | 2.58 ± 0.23 | 2.24 ± 0.2 | – | –
7 | CC(C)O [propan-2-ol] + CCn1cc[n+](C)c1.O=S(=O)([O-])O | 0.577 ± 0.046 | 0.356 ± 0.04 | 0.278 ± 0.039 | 0.223 ± 0.039 | – | –
8 | CCO [ethanol] + CCOS(=O)(=O)[O-].CCn1cc[n+](C)c1 | 0.703 ± 0.05 | 0.6 ± 0.046 | 0.554 ± 0.045 | 0.534 ± 0.044 | 0.866 ± 0.056 | 0.783 ± 0.053
9 | CCCCO [butan-1-ol] + CCn1cc[n+](C)c1.O=S(=O)([O-])O | 0.758 ± 0.052 | 0.62 ± 0.047 | 0.43 ± 0.041 | – | – | –
10 | CO [methanol] + CCOS(=O)(=O)[O-].CCn1cc[n+](C)c1 | 0.406 ± 0.041 | 0.41 ± 0.041 | 0.389 ± 0.04 | 0.339 ± 0.039 | 0.537 ± 0.044 | 0.419 ± 0.041
11 | CCO [ethanol] + CCn1cc[n+](C)c1.O=S(=O)([O-])O | 0.269 ± 0.039 | 0.177 ± 0.039 | 0.13 ± 0.039 | 0.116 ± 0.039 | – | 0.426 ± 0.041
